# “Also recorded” adds a separate entry of the source.
# How the values were obtained:
# Format in all cases: cell-based
# [1] = test system: colorectal cancer cells (chemotherapy resistant HCT116); assay: Cell invasion assay (transwell, Matrigel), colorectal cancer cells; conditions: 5 or 10 μM DT, 3 days, vs control vehicle; FIG. 13 (a)
# Protocol: (§1) An in vitro evaluation of the effect of DT on lung cancer cells (A549 and chemotherapy resistant/metastatic H460), prostate cancer cells (metastatic DU145) and colorectal cancer cells (chemotherapy resistant HCT116) invasion and migration was performed, using cell invasion assay and cell migration assay.
# (§2) Cell Invasion Assay: cells of interest were treated with a control vehicle, 5 or 10 μM of DT and incubated for 3 days. 1×10^5 cells were placed into the upper chamber of transwell plates (8 μm) with membranes pre-coated with 20% Matrigel and the bottom chamber contained 600 μL media supplemented with 10% fetal bovine serum (FBS). The cells migrated to the bottom of the chamber were fixed, stained and counted.
# [2] = test system: CCL2 in hormone therapy resistant and metastatic PC3 prostate cancer cells; assay: CCL2 ELISA of culture medium, PC3; conditions: 5 or 10 μM DT, 24 hours, vs DMSO, FIG. 14 (d)
# Protocol: (§3) It has been reported that increased CCL2 expression enhances cancer cell metastasis via macrophage recruitment. The effect of DT on CCL2 expression in RAW264.7 macrophages, THP1 monocytes and prostate cancer cells (metastatic DU145 and hormone therapy resistant and metastatic PC3) was examined by treating the cells with DMSO (control), 5 or 10 μM DT for 24 hours.
# (§4) The culture medium was collected and the concentration of CCL2 was measured using ELISA assay.
# [3] = test system: prostate cancer cells (metastatic DU145, PC3, 22RV1); assay: Cell migration (wound-healing) assay, prostate cancer cells; conditions: DT vs control vehicle, 24 h, dose dependent; FIG. 12 (b), (d), (f)
# Protocol: as §1
# Cell Migration Assay: In vitro wound-healing assay was used to assess cell motility in two dimensions. Cancer cells were plated overnight to achieve a subconfluent cell layer in 24-well plates. A scratch was made on the cell layer with a micropipette tip, and cultures were washed twice with serum-free medium to remove floating cells. Cancer cells were incubated in a culture medium containing DT or the control vehicle. Wound healing was visualized by comparing photographs taken at the time of adding the DT/control vehicle and 24 h later. Three experiments were done in quadruplicates.
# [4] = test system: skp2 and downstream genes in A549 and H460 lung cancer cells; assay: skp2 and downstream gene mRNA expression, lung cancer cells; conditions: various concentrations of DT vs DMSO, FIG. 10 (c)-(f)
# Protocol: (§5) It has been reported that skp2 plays an important role in the metastasis of cancer cells. An in vitro evaluation of the effect of DT on prostate cancer cell metastasis was performed, by measuring the mRNA expression of skp2 in the following prostate cancer cell lines: meatstatic DU145 cells (Panels i-j of FIG. 9), hormone therapy resistant and metastatic PC3 cells (Panel h of FIG. 9), and 22RV1 cells (Panels k-l of FIG. 9), A549 lung cancer cells (Panels (c)-(e) of FIG. 10), chemotherapy-resistant/metastatic H460 lung cancer cells (Panels (d) and (f) of FIG. 10), HCT116 colon cancer cells (Panels (g) and (i) of FIG. 10) and MCF7-tamoxifen resistant breast cancer cells (Panels (h) and (j) of FIG. 10) […].
# (§6) The cancer cells were treated with DMSO and various concentrations of DT.
# [5] = test system: lung cancer cells (A549 and chemotherapy resistant/metastatic H460); assay: Cell invasion assay (transwell, Matrigel), lung cancer cells; conditions: 5 or 10 μM DT, 3 days, vs control vehicle; FIG. 11
# Protocol: as §1, §2
# [6] = test system: skp2 and downstream genes in HCT116 colon cancer cells; assay: skp2 and downstream gene mRNA expression, colon cancer cells; conditions: various concentrations of DT vs DMSO, FIG. 10 (g), (i)
# Protocol: as §5, §6
# [7] = test system: γ-H2AX and phosphorylated-ATM in A549 and chemotherapy-resistant/metastatic H460 lung cancer cells; assay: Western blot of DNA damage response proteins, lung cancer cells; conditions: various concentrations of DT, vs control vehicle; dose dependent; FIG. 10 (a)-(b)
# Protocol: An in vitro evaluation on the damage effect of DT on cancer cells was performed, using prostate cancer cells (metastatic LNCaP and metastatic DU145, hormone therapy resistant and metastatic PC3 and 22RV1) and lung cancer cells (A549 and chemotherapy-resistant/metastatic H460).
# Cancer cells were treated with a control vehicle, dihydrotestosterone (DHT), and various concentrations of DT between 6 to 24 hours. Cellular extracts of treated cancer cells were analyzed using Western Blot.
# [8] = test system: CCL2 in RAW264.7 macrophages; assay: CCL2 ELISA of culture medium, RAW264.7 macrophages; conditions: 5 or 10 μM DT, 24 hours, vs DMSO, FIG. 14 (a)
# Protocol: as §3, §4
# [9] = test system: CCL2 in THP1/DU145 co-culture; assay: CCL2 ELISA, THP1/DU145 co-culture; conditions: DT-treated monocyte/DU145 co-culture medium; 5 or 10 μM DT, 24 hours; FIG. 15 (a)
# Protocol: As illustrated in Example 10, the production of CCL2 was inhibited by DT in both prostate cancer cells and macrophage, the effect of DT on monocyte/cancer cell co-culture and macrophage/cancer cell co-culture was examined using the invasion assay described in Example 9. • (a) THP1 monocytes, Raw264.7 macrophage, monocyte/prostate cancer co-culture and macrophage/prostate cancer co-culture were treated with a vehicle (DMSO), 5 or 10 μM DT for 24 hours, the cultured medium was collected and placed into the lower chamber of a transwell plate. • (b) Prostate cancer cells (PC3, DU145 and 22RV1) were placed in the cell invasion assay). The level of CCL2 in the invasion assay was measured by ELIZA method.
# [10] = test system: macrophages with prostate cancer cells (DU145 or PC3); assay: Macrophage migration in invasive assay with DT-treated prostate cancer cells; conditions: DT-treated vs untreated DU145 and PC3 cells; images not shown
# Protocol: An in vitro study to evaluate the effect of DT on macrophage and cancer cell migration was performed.
# Macrophages were treated with a vehicle (DMSO), 5 or 10 μM DT. The mobility of the macrophages was not affected by DT. The macrophages were placed in an invasive assay, prepared accordingly to the steps in Example 10 using DT-treated prostate cancer cells (DU145 or PC3) incubated in 10% CD-FBS RPMI medium.
compound,measurement,setting,value
"Cc1cccc2c3c(ccc12)C(=O)C1=C(OCC1C)C3=O (stereo not shown) [DT, dihydroisotanshinone I]",colorectal cancer cell motility (invasion assay),[1],reduced the motility of chemotherapy resistant colorectal cancer cells; also recorded: reduced the motility of colon cancer cells
same,production of CCL2 in PC3 prostate cancer cells,[2],effectively inhibit the production of CCL2
same,prostate cancer cell migration into the wounded area,[3],reduced the motility and migration of prostate cancer cells; also recorded: reduced prostate cancer cell migration into the wounded area
same,"mRNA expression of skp2 and its downstream genes, lung cancer",[4],"effectively inhibit mRNA expression of skp2 and its downstream genes; also recorded: reduces skps and its downstream genes, MMP2, MMP9 and E-cadherin"
same,lung cancer cell motility (invasion assay),[5],reduced metastatic lung cancer cell motility; also recorded: reduced the motility of lung cancer cells
same,"mRNA expression of skp2 and its downstream genes, colorectal cancer",[6],"effectively inhibit mRNA expression of skp2 and its downstream genes; also recorded: reduces skps and its downstream genes, MMP2, MMP9 and E-cadherin"
same,"DNA damage response proteins (γ-H2AX and phosphorylated-ATM), lung cancer cells",[7],"increase in DNA damage response proteins (γ-H2AX and phosphorylated-ATM); also recorded: increased the DNA damage response proteins (γ-H2AX, phosphorylated-ATM)"
same,production of CCL2 in macrophages,[8],effectively inhibit the production of CCL2
same,concentration of CCL2,[9],significantly reduced
same,macrophage migration induced by prostate cancer cells,[10],inhibit macrophage migration

# Reference: patent publication US10426755B2, “Methods for inhibiting cancer cells” (Chang Gung Memorial Hospital, Chiayi, priority 2015, dated 2019)
